Test system: Mitochondria-located protein genes
Test: DNA chip mRNA expression in yeast, mitochondria-located protein genes (Table 2)
Format: cell-based, Saccharomyces cerevisiae S288C
Settings: cells incubated two hours with the chemical substance
Procedure: Yeast (Saccharomyces cerevisiae S288C (α SUC2mal mel gap2 CUP1)) were incubated at 25° C. on YPD medium (yeast extract 1%, polypepton 2%, glucose 2%). One of toxic chemical substances was added to the cells at logarithmic growth phase, and the cells were further incubated for two hours. Cells were cultured without any chemical substance in the same condition, and were used as control. Concentrations of the chemical substances were defined to inhibit the growth of the yeast but not lead to death.
After completion of the incubation, the culture was centrifuged to collect the cells. To the cells, sodium acetate buffer (50 mM sodium acetate, 10 mM EDTA, 1% SDS) was added, and the mixture was shaken at 65° C. for five minutes, followed by returning to room temperature, and obtaining the supernatant, of which the procedures were repeated two times. To the supernatant, ½ amount of a solution of phenol/chloroform was added, and the mixture was centrifuged to give a supernatant, which was added with an equal amount of chloroform, and the mixture was centrifuged to give a supernatant. To the supernatant, an equal amount of isopropanol containing 0.3 M sodium acetate was added, and the mixture was allowed to stand at room temperature for 30 minutes, after which the mixture was centrifuged to give a sediment of the whole RNAs. Seventy % ethanol was added to the sediment, and the mixture was again centrifuged to give a sediment, which was then dried and dissolved in water. mRNA was isolated from the whole RNAs as followings. In view of the fact that a poly A chain is attached to the 3′ terminus of mRNA, a polynucleotide having a poly T structure which was immobilized on the surface of latex beads was used to trap the mRNA, and then the mRNA was washed and eluted with spine column (Oligotex-dT30<Super>mRNA Purification Kit, Takara). Reverse transcription of the mRNA was conducted with a reverse transcriptase (Super Script II Reverse Transcriptase; catalogue No. 18064-014, GibcoBRL) using fluorescence-labeled nucleotides to give cDNAs that were introduced with Cy3-dUTP or Cy5-dUTP during the reverse transcription.
The labeled cDNAs were dissolved in TE buffer (10mM Tris-HCl/1 mM EDTA, pH8.0), and the solution was dropped on the DNA chip containing the whole genes of yeast (DNA Chip Research Inc. Japan) so that the cDNAs were hybridized on the DNA chip at 65° C. for over 12 hours. The fluoresces intensity of the DNA chip was read with a scanner, and the ratio relative to the fluorescence intensity resulting from the absence of chemical substance was estimated as the following, which is shown in Tables 1 to 9: […]

Measured: The level of expressed mRNA in the presence of chemical substance/The level of expressed mRNA in the absence of chemical substance

S=C([S-])NCCNC(=S)[S-].[Zn+2] [(11), zinc N,N′-ethylenebis(dithiocarbamate)]
2.6: yeast gene YGR008C
0.8: yeast gene YDL181W | yeast gene YDR347W | yeast gene YDR529C
2.5: yeast gene YDL198C | yeast gene YER178W
2.1: yeast gene YBL099W | yeast gene YHR008C
1.7: yeast gene YDR258C | yeast gene YEL039C | yeast gene YGR076C
0.9: yeast gene YBR282W | yeast gene YEL024W
1.1: yeast gene YAL039C | yeast gene YBL022C | yeast gene YBL030C | yeast gene YBR044C | yeast gene YGL018C | yeast gene YGR028W
1.4: yeast gene YDL067C | yeast gene YDR377W | yeast gene YJL166W | yeast gene YJL180C | yeast gene YJR045C
1.2: yeast gene YBR122C | yeast gene YBR185C | yeast gene YBR221C | yeast gene YDR298C | yeast gene YFL016C | yeast gene YJL096W | yeast gene YJL133W
1.6: yeast gene YCL057W | yeast gene YGL191W | yeast gene YGR062C | yeast gene YJR077C
1.3: yeast gene YBR003W | yeast gene YDR079W | yeast gene YDR231C | yeast gene YGR082W | yeast gene YGR174C | yeast gene YIL155C
1.5: yeast gene YBR251W | yeast gene YCR046C
1.8: yeast gene YCR083W | yeast gene YGR244C
2.0: yeast gene YDR178W
0.7: yeast gene YBL038W | yeast gene YBR091C | yeast gene YGL187C | yeast gene YJL102W
